Laboratory results: patent US5726195A, “Aminoacyl adenylate mimics as novel antimicrobial and antiparasitic agents” (Cubist Pharmaceuticals, Inc., priority 1996, dated 1998)
In brackets after ≈: the same amount, converted by molar mass.

Experiments:
[1] = target: E. Coli. IleRS (isoleucyl-tRNA synthetase) (Escherichia coli, UniProt P00956); experiment: Inhibition of isoleucyl-tRNA synthetase (aminoacylation of tRNA with [3H]isoleucine); assay type: biochemical; settings: E. coli enzyme; irreversible inhibitors: values are 50% of the active enzyme concentration; read-out: IC50 E.Coli. IleRS
Experimental: The extent of aminoacylation of tRNA with isoleucine catalyzed by isoleucyl-tRNA synthetase enzyme was measured by monitoring the incorporation of [3H] isoleucine into trichloroacetic acid-precipitable tRNA in the presence of a compound of Formula I, as compared with activity in the absence of inhibitor. The isoleucyl-tRNA synthetase enzymes are well known in the prior art and can be obtained and purified by known methods (for example see: D. Kern et at., Biochimie, 61, 1257-1272 (1979) and J. Gilbart et al., Antimicrobial Agents and Chemotherapy, 37 (1), 32-38 (1993)).
Isoleucyl-tRNA synthetase enzyme (0.08-2.0 nM, preferably, 0.4 nM) was first pre-incubated at 25° C. with 0.05 mg/ml bovine serum albumin, 10 mM DTT, 2.5% dimethyl sulfoxide, with or without a compound of Formula I, for 20 minutes. At this point a substrate solution (a solution containing the following: ATP, [^3 H]isoleucine, tRNA, HEPES, magnesium chloride, and potassium chloride) was added to give a final concentration of 0.0286 mg/ml bovine serum albumin, 5.7 mM DTT, 4 mM ATP, 5-20 μM [^3 H] isoleucine (1-15 Ci/mmol), 90 μM crude tRNA or 2 μM isoleucine specific tRNA, 1.4% dimethyl sulfoxide, 30 mM HEPES (pH 7.5), 10 mM magnesium chloride, and 50 mM potassium chloride and incubated at 25° C. Aliquots were removed at selected times (e.g. 5, 10, 20 minutes) and applied to 3MM filter paper discs (Whatman) and then dropped into 5% (wt/vol) trichloroacetic acid for >5 minutes. Filters were washed for three 10-minute periods in 5% trichloroacetic acid, rinsed in 95% ethanol and diethyl ether, and radioactivity was measured with Betafluor™ (National Diagnostics) by liquid scintillation counting.
Inhibitor activity is reported in Table II as an IC50 value (inhibitor concentration causing 50% inhibition of enzyme activity) per a known amount of active enzyme. In the case of irreversible inhibitors (1:1 stoichiometry) these values are 50% of the active enzyme concentration. The IC50 (in nM, E. coli) values of representative compounds of the present invention are listed in the second column of Table II.

E. faecium ATCC 6569 = experiment: Whole cell antimicrobial screen, MIC; assay type: cell-based; settings: Enterococcus faecium, ATCC6569
Experimental: (§1) Compounds were tested for antimicrobial activity against a panel of organisms according to standard procedures described by the National Committee for Clinical Laboratory Standards (NCCLS document M7-A3, Vol. 13, No. 25, 1993/NCCLS document M27-P, Vol. 12, No. 25, 1992). Compounds were dissolved in 100% dimethyl sulfoxide and were diluted to the final reaction concentration (0.1 μg/mL-500 μg/mL) in microbial growth media. In al cases the final concentration of dimethyl sulfoxide incubated with cells is less than or equal to 1%. For minimum inhibitory concentration (MIC) calculations, 2-fold dilutions of compounds were added to wells of a microtiter plate containing 5×10^4 bacteria or fungal cells in a final volume of 100 lambda of an appropriate media (Mueller-Hinton Broth; Haemophilus Test Media; Mueller-Hinton Broth+5% Sheep Blood; or […]). Plates were incubated overnight at an appropriate temperature (30° C.-37° C.) and optical densities (measure of cell growth) were measured using a commercial plate reader. The MIC value is defined as the lowest compound concentration inhibiting growth of the test organism.

[2] = system: S. epidermidis ATCC 33501; experiment: Whole cell antimicrobial screen, MIC; assay type: cell-based; settings: Staphylococcus epidermidis, ATCC33501
Experimental: as §1

[3] = system: S. saprophyticus ATCC 35552; experiment: Whole cell antimicrobial screen, MIC; assay type: cell-based; settings: Staphylococcus saprophyticus, ATCC35552
Experimental: as §1

S. pneumonia ATCC 49619 = experiment: Whole cell antimicrobial screen, MIC; assay type: cell-based
Experimental: as §1

S. aureus ATCC 14154 = experiment: Whole cell antimicrobial screen, MIC; assay type: cell-based; settings: Staphylococcus aureus, ATCC14154
Experimental: as §1

S. aureus ATCC 6538P = experiment: Whole cell antimicrobial screen, MIC; assay type: cell-based; settings: Staphylococcus aureus, ATCC6538P
Experimental: as §1

C. albicans ATCC 10231 = experiment: Whole cell antimicrobial screen, MIC; assay type: cell-based; settings: Candida albicans, ATCC10231
Experimental: as §1

E. faecalis ATCC 33011 = experiment: Whole cell antimicrobial screen, MIC; assay type: cell-based; settings: Enterococcus faecalis, ATCC33011
Experimental: as §1

S. pyogenes ATCC 8668 = experiment: Whole cell antimicrobial screen, MIC; assay type: cell-based; settings: Streptococcus pyogenes, ATCC8668
Experimental: as §1

K. pneumonia ATCC 4352 = experiment: Whole cell antimicrobial screen, MIC; assay type: cell-based; settings: Klebsiella pneumoniae, ATCC4352
Experimental: as §1

B. subtilis ATCC 6633 = experiment: Whole cell antimicrobial screen, MIC; assay type: cell-based; settings: Bacillus subtilis, ATCC6633
Experimental: as §1

[4] = system: M. catarrhalis ATCC 25240; experiment: Whole cell antimicrobial screen, MIC; assay type: cell-based; settings: Moraxella catarrhalis, ATCC25240
Experimental: as §1

[5] = system: isoleucyl-tRNA synthetase; settings: Gram positive bacterial pathogens such as Staphylococcus aureus; cited from earlier work
H. influenza ATCC 49247 = experiment: Whole cell antimicrobial screen, MIC; assay type: cell-based
Experimental: as §1

Chain of E. Coli. IleRS (isoleucyl-tRNA synthetase) (P00956 whole entry): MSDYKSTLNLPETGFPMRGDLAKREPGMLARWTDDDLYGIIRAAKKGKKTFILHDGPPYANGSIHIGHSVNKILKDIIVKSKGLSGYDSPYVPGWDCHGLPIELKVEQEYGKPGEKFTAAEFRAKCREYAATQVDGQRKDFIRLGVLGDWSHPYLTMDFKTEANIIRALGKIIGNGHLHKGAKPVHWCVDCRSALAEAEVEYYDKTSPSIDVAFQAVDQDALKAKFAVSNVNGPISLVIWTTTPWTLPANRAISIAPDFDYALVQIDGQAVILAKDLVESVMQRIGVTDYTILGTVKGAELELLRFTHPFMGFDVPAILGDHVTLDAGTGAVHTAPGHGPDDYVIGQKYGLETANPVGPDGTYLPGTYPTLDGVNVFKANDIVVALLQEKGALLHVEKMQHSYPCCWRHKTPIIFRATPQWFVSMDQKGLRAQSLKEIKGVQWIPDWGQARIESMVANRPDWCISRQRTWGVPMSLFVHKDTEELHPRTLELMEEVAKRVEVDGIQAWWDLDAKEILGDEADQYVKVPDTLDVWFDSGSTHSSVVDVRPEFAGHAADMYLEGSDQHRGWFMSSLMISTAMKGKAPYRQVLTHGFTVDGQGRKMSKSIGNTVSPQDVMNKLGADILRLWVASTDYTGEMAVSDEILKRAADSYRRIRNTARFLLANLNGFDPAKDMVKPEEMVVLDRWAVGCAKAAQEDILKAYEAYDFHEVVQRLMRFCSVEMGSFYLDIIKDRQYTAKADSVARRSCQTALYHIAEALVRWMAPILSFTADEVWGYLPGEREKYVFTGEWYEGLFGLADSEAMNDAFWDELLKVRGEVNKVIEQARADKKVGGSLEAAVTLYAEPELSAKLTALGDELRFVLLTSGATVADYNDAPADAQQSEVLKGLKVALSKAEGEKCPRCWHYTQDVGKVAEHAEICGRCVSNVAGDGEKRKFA

Row | Structure (SMILES) | IC50 [1] | MIC (E. faecium ATCC 6569) | MIC [2] | MIC [3] | MIC (S. pneumonia ATCC 49619) | MIC (S. aureus ATCC 14154) | MIC (S. aureus ATCC 6538P) | MIC (C. albicans ATCC 10231) | MIC (E. faecalis ATCC 33011) | MIC (S. pyogenes ATCC 8668) | MIC (K. pneumonia ATCC 4352) | MIC (B. subtilis ATCC 6633) | MIC [4] | inhibition of isoleucyl adenylate formation [5] | MIC (H. influenza ATCC 49247)
1 | CC[C@H](C)[C@H](N)C(=O)NS(=O)(=O)OC[C@H]1O[C@@H](CCn2nnc(-c3ccc(C#Cc4ccc([N+](=O)[O-])o4)cc3)n2)[C@H](O)[C@@H]1O [II, [S-(R*,R*)]-3,6-anhydro-1,2-dideoxy-1-[5-[4-[(5-nitro-2-furyl)ethynyl]phenyl]-2H-tetrazol-2-yl]-D-allo-heptitol 7-(2-amino-3-methyl-1-oxopentyl)sulfamate] | 1 nM | 64 µg/mL (≈ 101 µM) | 1 µg/mL (≈ 1.58 µM) | 8 µg/mL (≈ 12.6 µM) | 16 µg/mL (≈ 25.3 µM) | 8 µg/mL (≈ 12.6 µM) | 4 µg/mL (≈ 6.31 µM) | 100 µg/mL (≈ 158 µM) | 256 µg/mL (≈ 404 µM) | 16 µg/mL (≈ 25.3 µM) | – | – | – | – | –
2 | CC[C@H](C)[C@H](N)C(=O)NS(=O)(=O)OC[C@H]1O[C@@H](CCn2nnc(-c3ccc(C#Cc4ccccc4)cc3)n2)[C@H](O)[C@@H]1O [IV] | 4.5 nM | > 500 µg/mL | 2 µg/mL (≈ 3.34 µM) | 10 µg/mL (≈ 16.7 µM) | – | 100 µg/mL (≈ 167 µM) | 10 µg/mL (≈ 16.7 µM) | > 200 µg/mL | > 500 µg/mL | – | 50 µg/mL (≈ 83.5 µM) | 25 µg/mL (≈ 41.8 µM) | 5 µg/mL (≈ 8.35 µM) | – | –
3 | CC[C@H](C)[C@H](N)C(=O)NS(=O)(=O)OC[C@H]1O[C@@H](CCn2nnc(-c3ccc(-c4ccccc4)cc3C)n2)[C@H](O)[C@@H]1O [XXI] | 0.5 nM | 500 µg/mL (≈ 849 µM) | 50 µg/mL (≈ 84.9 µM) | 50 µg/mL (≈ 84.9 µM) | – | 500 µg/mL (≈ 849 µM) | 100 µg/mL (≈ 170 µM) | – | > 500 µg/mL | – | 100 µg/mL (≈ 170 µM) | 100 µg/mL (≈ 170 µM) | < 50 µg/mL | – | –
4 | CC(=CC(=O)OCCCCCCCCC(=O)O)CC1OCC(CC2OC2C(C)C(C)O)C(O)C1O (stereo not drawn) [Pseudomonic acid A] | – | – | – | – | – | – | – | – | – | – | – | – | – | inhibits isoleucyl adenylate formation | –
5 | CC[C@H](C)[C@H](N)C(=O)NS(=O)(=O)OC[C@H]1O[C@@H](CCn2nnc(-c3ccc(-c4ccccc4C)c(C)c3)n2)[C@H](O)[C@@H]1O [XXII] | 11 nM | 100 µg/mL (≈ 166 µM) | 5 µg/mL (≈ 8.3 µM) | 10 µg/mL (≈ 16.6 µM) | 25 µg/mL (≈ 41.5 µM) | 25 µg/mL (≈ 41.5 µM) | 25 µg/mL (≈ 41.5 µM) | > 500 µg/mL | 200 µg/mL (≈ 332 µM) | 10 µg/mL (≈ 16.6 µM) | 100 µg/mL (≈ 166 µM) | 25 µg/mL (≈ 41.5 µM) | 50 µg/mL (≈ 83 µM) | – | –
6 | CC[C@H](C)[C@H](N)C(=O)NS(=O)(=O)OC[C@H]1O[C@@H](CCn2nnc(-c3ccc(Oc4ccc(C(=O)OCc5ccccc5)cc4)cc3)n2)[C@H](O)[C@@H]1O [XI] | 109 nM | 25 µg/mL (≈ 34.5 µM) | 5 µg/mL (≈ 6.9 µM) | 10 µg/mL (≈ 13.8 µM) | 50 µg/mL (≈ 69 µM) | 25 µg/mL (≈ 34.5 µM) | 10 µg/mL (≈ 13.8 µM) | > 500 µg/mL | > 500 µg/mL | 5 µg/mL (≈ 6.9 µM) | – | – | – | – | 25 µg/mL (≈ 34.5 µM)
7 | CC[C@H](C)[C@H](N)C(=O)NS(=O)(=O)OC[C@H]1O[C@@H](CCn2nnc(-c3ccc(Sc4ccccc4)cc3)n2)[C@H](O)[C@@H]1O [IX] | 5 nM | 10 µg/mL (≈ 16.5 µM) | 5 µg/mL (≈ 8.24 µM) | 25 µg/mL (≈ 41.2 µM) | – | 50 µg/mL (≈ 82.4 µM) | 25 µg/mL (≈ 41.2 µM) | > 500 µg/mL | 500 µg/mL (≈ 824 µM) | 0.5 µg/mL (≈ 0.824 µM) | – | – | – | – | –
8 | CC[C@H](C)[C@H](N)C(=O)NS(=O)(=O)OC[C@H]1O[C@@H](CCn2nnc(-c3ccc(-c4ccccc4C)cc3)n2)[C@H](O)[C@@H]1O [XIX] | 5.3 nM | 200 µg/mL (≈ 340 µM) | 5 µg/mL (≈ 8.49 µM) | 25 µg/mL (≈ 42.5 µM) | – | 50 µg/mL (≈ 84.9 µM) | 50 µg/mL (≈ 84.9 µM) | 500 µg/mL (≈ 849 µM) | 300 µg/mL (≈ 510 µM) | – | 100 µg/mL (≈ 170 µM) | 50 µg/mL (≈ 84.9 µM) | 50 µg/mL (≈ 84.9 µM) | – | –
9 | CC[C@H](C)[C@H](N)C(=O)NS(=O)(=O)OC[C@H]1O[C@@H](CCn2nnc(-c3ccc(-c4ccccc4)c(C)c3)n2)[C@H](O)[C@@H]1O [XX] | 0.6 nM | 100 µg/mL (≈ 170 µM) | 25 µg/mL (≈ 42.5 µM) | 25 µg/mL (≈ 42.5 µM) | – | 50 µg/mL (≈ 84.9 µM) | 50 µg/mL (≈ 84.9 µM) | > 500 µg/mL | 500 µg/mL (≈ 849 µM) | – | 50 µg/mL (≈ 84.9 µM) | 50 µg/mL (≈ 84.9 µM) | 25 µg/mL (≈ 42.5 µM) | – | > 500 µg/mL
10 | CC[C@H](C)[C@H](N)C(=O)NS(=O)(=O)OC[C@H]1O[C@@H](CCn2nnc(N3CCN(c4ccccc4)CC3)n2)[C@H](O)[C@@H]1O [XXIV] | 1.3 nM | 400 µg/mL (≈ 686 µM) | 50 µg/mL (≈ 85.8 µM) | 400 µg/mL (≈ 686 µM) | – | > 400 µg/mL | 400 µg/mL (≈ 686 µM) | 500 µg/mL (≈ 858 µM) | > 400 µg/mL | – | 400 µg/mL (≈ 686 µM) | 400 µg/mL (≈ 686 µM) | 400 µg/mL (≈ 686 µM) | – | –
11 | CC[C@H](C)[C@H](N)C(=O)NS(=O)(=O)OC[C@H]1O[C@@H](CCn2nnc(-c3ccc(C(=O)OCc4ccccc4)cc3)n2)[C@H](O)[C@@H]1O [VI] | 7.5 nM | 100 µg/mL (≈ 158 µM) | 5 µg/mL (≈ 7.9 µM) | 25 µg/mL (≈ 39.5 µM) | – | 50 µg/mL (≈ 79 µM) | 25 µg/mL (≈ 39.5 µM) | > 500 µg/mL | > 500 µg/mL | > 5 µg/mL | – | – | – | – | –
